Literature values as cited in US6303141A, “Transdermally administrable medicament with ACE inhibitors” (Hexal AG, priority 1995, dated 2001).

Conditions: in vivo

SMILES | oral bioavailability
CCOC(=O)[C@H](CCc1ccccc1)N[C@H]1CCc2ccccc2N(CC(=O)O)C1=O [benazepril] | 28%
C[C@H](CS)C(=O)N1CCC[C@H]1C(=O)O [captopril] | approximately 70%
